PubChem BioAssay (NCI)
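Cultured in 96-well plates, cells were exposed to test compound for 48 hours across five concentrations. GI50 = concentration required for 50% inhibition of growth. TGI: total growth inhibition.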

What was measured:
Test in all cases: DTP human tumour cell line panel, 48 h
786-0 renal = tested on: 786-0 renal
A498 renal = tested on: A498 renal
A549 NSCLC = tested on: A549 NSCLC
ACHN renal = tested on: ACHN renal
BT-549 breast = tested on: BT-549 breast
CAKI-1 renal = tested on: CAKI-1 renal
CCRF-CEM leukemia = tested on: CCRF-CEM leukemia
COLO 205 colon = tested on: COLO 205 colon
DU-145 prostate = tested on: DU-145 prostate
HCT-116 colon = tested on: HCT-116 colon
HCT-15 colon = tested on: HCT-15 colon
HL-60(TB) leukemia = tested on: HL-60(TB) leukemia
HOP-62 NSCLC = tested on: HOP-62 NSCLC
HS 578T breast = tested on: HS 578T breast
HT29 colon = tested on: HT29 colon
IGROV1 ovarian = tested on: IGROV1 ovarian
K-562 leukemia = tested on: K-562 leukemia
KM12 colon = tested on: KM12 colon
LOX IMVI melanoma = tested on: LOX IMVI melanoma
M14 melanoma = tested on: M14 melanoma
MALME-3M melanoma = tested on: MALME-3M melanoma
MCF7 breast = tested on: MCF7 breast
MDA-MB-231 breast = tested on: MDA-MB-231 breast
MDA-MB-435 = tested on: MDA-MB-435
MOLT-4 leukemia = tested on: MOLT-4 leukemia
NCI-H226 lung = tested on: NCI-H226 lung
NCI-H23 lung = tested on: NCI-H23 lung
NCI-H460 lung = tested on: NCI-H460 lung
NCI-H522 lung = tested on: NCI-H522 lung
NCI/ADR-RES ovarian = tested on: NCI/ADR-RES ovarian
OVCAR-3 ovarian = tested on: OVCAR-3 ovarian
OVCAR-4 ovarian = tested on: OVCAR-4 ovarian
OVCAR-5 ovarian = tested on: OVCAR-5 ovarian
OVCAR-8 ovarian = tested on: OVCAR-8 ovarian
PC-3 prostate = tested on: PC-3 prostate
RPMI-8226 leukemia = tested on: RPMI-8226 leukemia
SF-268 CNS = tested on: SF-268 CNS
SF-295 CNS = tested on: SF-295 CNS
SF-539 CNS = tested on: SF-539 CNS
SK-MEL-2 melanoma = tested on: SK-MEL-2 melanoma
SK-MEL-28 melanoma = tested on: SK-MEL-28 melanoma
SK-MEL-5 melanoma = tested on: SK-MEL-5 melanoma
SK-OV-3 ovarian = tested on: SK-OV-3 ovarian
SN12C renal = tested on: SN12C renal
SNB-19 CNS = tested on: SNB-19 CNS
SNB-75 CNS = tested on: SNB-75 CNS
SR leukemia = tested on: SR leukemia
SW-620 colon = tested on: SW-620 colon
T-47D breast = tested on: T-47D breast
U251 CNS = tested on: U251 CNS
UACC-257 melanoma = tested on: UACC-257 melanoma
UO-31 renal = tested on: UO-31 renal

ClCCN(CCCl)c1ccc(CNc2ccccc2)cc1
GI50 (786-0 renal): 5.11 µM | TGI (786-0 renal): 36 µM | GI50 (A498 renal): 6.32 µM | TGI (A498 renal): 24.3 µM | GI50 (A549 NSCLC): 4.36 µM | TGI (A549 NSCLC): > 100 µM | GI50 (ACHN renal): 2.76 µM | TGI (ACHN renal): > 100 µM | GI50 (BT-549 breast): 7.2 µM | TGI (BT-549 breast): 43 µM | GI50 (CAKI-1 renal): 1.39 µM | TGI (CAKI-1 renal): > 100 µM | GI50 (CCRF-CEM leukemia): 4.12 µM | TGI (CCRF-CEM leukemia): > 100 µM | GI50 (COLO 205 colon): 20.8 µM | TGI (COLO 205 colon): > 100 µM | GI50 (DU-145 prostate): 5.28 µM | TGI (DU-145 prostate): > 100 µM | GI50 (HCT-116 colon): 9.67 µM | TGI (HCT-116 colon): > 100 µM | GI50 (HCT-15 colon): 10.4 µM | TGI (HCT-15 colon): > 100 µM | GI50 (HL-60(TB) leukemia): 2.44 µM | TGI (HL-60(TB) leukemia): 54 µM | GI50 (HOP-62 NSCLC): 6.32 µM | TGI (HOP-62 NSCLC): > 100 µM | GI50 (HS 578T breast): 12.4 µM | TGI (HS 578T breast): 83.2 µM | GI50 (HT29 colon): 20.4 µM | TGI (HT29 colon): > 100 µM | GI50 (IGROV1 ovarian): 16 µM | TGI (IGROV1 ovarian): > 100 µM | GI50 (K-562 leukemia): 8.66 µM | TGI (K-562 leukemia): > 100 µM | GI50 (KM12 colon): 24.7 µM | TGI (KM12 colon): > 100 µM | GI50 (LOX IMVI melanoma): 4.52 µM | TGI (LOX IMVI melanoma): 26 µM | GI50 (M14 melanoma): 8.27 µM | TGI (M14 melanoma): > 100 µM | GI50 (MALME-3M melanoma): 21.8 µM | TGI (MALME-3M melanoma): 76.8 µM | GI50 (MCF7 breast): 4.19 µM | TGI (MCF7 breast): > 100 µM | GI50 (MDA-MB-231 breast): 28.5 µM | TGI (MDA-MB-231 breast): > 100 µM | GI50 (MDA-MB-435): 12 µM | TGI (MDA-MB-435): > 100 µM | GI50 (MOLT-4 leukemia): 2.81 µM | TGI (MOLT-4 leukemia): > 100 µM | GI50 (NCI-H226 lung): 10.3 µM | TGI (NCI-H226 lung): 28.2 µM | GI50 (NCI-H23 lung): 9.59 µM | TGI (NCI-H23 lung): > 100 µM | GI50 (NCI-H460 lung): 1.21 µM | TGI (NCI-H460 lung): > 100 µM | GI50 (NCI-H522 lung): 4.85 µM | TGI (NCI-H522 lung): 22 µM | GI50 (NCI/ADR-RES ovarian): 9.78 µM | TGI (NCI/ADR-RES ovarian): > 100 µM | GI50 (OVCAR-3 ovarian): 15.2 µM | TGI (OVCAR-3 ovarian): > 100 µM | GI50 (OVCAR-4 ovarian): 16.2 µM | TGI (OVCAR-4 ovarian): > 100 µM | GI50 (OVCAR-5 ovarian): 25.8 µM | TGI (OVCAR-5 ovarian): > 100 µM | GI50 (OVCAR-8 ovarian): 6.34 µM | TGI (OVCAR-8 ovarian): > 100 µM | GI50 (PC-3 prostate): 11.6 µM | TGI (PC-3 prostate): > 100 µM | GI50 (RPMI-8226 leukemia): 12.9 µM | TGI (RPMI-8226 leukemia): 69.4 µM | GI50 (SF-268 CNS): 4.25 µM | TGI (SF-268 CNS): > 100 µM | GI50 (SF-295 CNS): 3.16 µM | TGI (SF-295 CNS): > 100 µM | GI50 (SF-539 CNS): 3.21 µM | TGI (SF-539 CNS): 24.2 µM | GI50 (SK-MEL-2 melanoma): 20.9 µM | TGI (SK-MEL-2 melanoma): 51 µM | GI50 (SK-MEL-28 melanoma): 36.8 µM | TGI (SK-MEL-28 melanoma): > 100 µM | GI50 (SK-MEL-5 melanoma): 11.3 µM | TGI (SK-MEL-5 melanoma): 34.4 µM | GI50 (SK-OV-3 ovarian): 12 µM | TGI (SK-OV-3 ovarian): > 100 µM | GI50 (SN12C renal): 4 µM | TGI (SN12C renal): > 100 µM | GI50 (SNB-19 CNS): 19 µM | TGI (SNB-19 CNS): > 100 µM | GI50 (SNB-75 CNS): 3.7 µM | TGI (SNB-75 CNS): 57.4 µM | GI50 (SR leukemia): 0.674 µM | TGI (SR leukemia): > 100 µM | GI50 (SW-620 colon): 10.6 µM | TGI (SW-620 colon): > 100 µM | GI50 (T-47D breast): 5.91 µM | TGI (T-47D breast): > 100 µM | GI50 (U251 CNS): 4.43 µM | TGI (U251 CNS): > 100 µM | GI50 (UACC-257 melanoma): 12.7 µM | TGI (UACC-257 melanoma): > 100 µM | GI50 (UO-31 renal): 4.86 µM | TGI (UO-31 renal): 42.3 µM
